Measurements: the NIST ThermoML archive (doi:10.1016/j.jct.2012.10.008)

Key:
[1] = Liquid; for viscosity: Falling or rolling sphere viscometry; for mass density: Vibrating tube method
[2] = refractive index (Na D-line) (dimensionless); conditions: 298.15 K; 101.33 kPa; Liquid; Standard Abbe refractometry
[3] = xn = mol fraction of the nth substance listed; conditions: 101 kPa, Liquid, x2 = 0; for viscosity: Falling or rolling sphere viscometry; for mass density: Vibrating tube method

CCCCO [butan-1-ol]
[1]
Conditions	mass density, 293.15 K [kg/m3]	mass density, 298.15 K [kg/m3]	mass density, 303.15 K [kg/m3]	mass density, 308.15 K [kg/m3]	mass density, 313.15 K [kg/m3]	viscosity, 293.15 K [mPa·s]	viscosity, 298.15 K [mPa·s]	viscosity, 303.15 K [mPa·s]	viscosity, 308.15 K [mPa·s]	viscosity, 313.15 K [mPa·s]
101 kPa	–	805.94	–	–	–	–	–	–	–	–
101.33 kPa	809.76	805.96	802.11	798.18	794.39	2.942	2.572	2.265	2.002	1.787

Conditions	refractive index
[2]	1.3972

CCCCO [butan-1-ol] + CCCC[NH3+].O=[N+]([O-])[O-]
[3]
Conditions	mass density [kg/m3]	viscosity [mPa·s]
293.15 K	809.76	2.942
298.15 K	805.94	2.572
303.15 K	802.11	2.265
308.15 K	798.18	2.002
313.15 K	794.39	1.787

CCO [ethanol]
[1]
Conditions	mass density, 293.15 K [kg/m3]	mass density, 298.15 K [kg/m3]	mass density, 303.15 K [kg/m3]	mass density, 308.15 K [kg/m3]	mass density, 313.15 K [kg/m3]	viscosity, 293.15 K [mPa·s]	viscosity, 298.15 K [mPa·s]	viscosity, 303.15 K [mPa·s]	viscosity, 308.15 K [mPa·s]	viscosity, 313.15 K [mPa·s]
101 kPa	–	–	–	–	–	–	–	1.01	0.907	–
101.33 kPa	789.5	785.39	780.69	776.35	772.11	1.218	1.134	1.015	0.91	0.836

Conditions	refractive index
[2]	1.3594

CCO [ethanol] + CCCC[NH3+].O=[N+]([O-])[O-]
[3]
Conditions	mass density [kg/m3]	viscosity [mPa·s]
293.15 K	789.5	1.218
298.15 K	785.39	1.134
303.15 K	780.69	1.01
308.15 K	776.35	0.907
313.15 K	772.11	0.836

CO [methanol]
[1], 101.33 kPa
Conditions	mass density [kg/m3]	viscosity [mPa·s]
293.15 K	791.23	0.588
298.15 K	786.54	0.552
303.15 K	781.81	0.516
308.15 K	777.05	0.486
313.15 K	772.25	0.461

Conditions	refractive index
[2]	1.3264

CO [methanol] + CCCC[NH3+].O=[N+]([O-])[O-]
[3]
Conditions	mass density [kg/m3]	viscosity [mPa·s]
293.15 K	791.23	0.588
298.15 K	786.54	0.552
303.15 K	781.81	0.516
308.15 K	777.05	0.486
313.15 K	772.25	0.461

CCCC[NH3+].O=[N+]([O-])[O-] [n-butylammonium nitrate]
[1], 101.33 kPa
Conditions	mass density [kg/m3]	viscosity [mPa·s]
293.15 K	1104.68	111.35
298.15 K	1101.52	89.95
303.15 K	1098.38	73.04
308.15 K	1095.26	60.25
313.15 K	1092.17	50.12

Conditions	refractive index
[2]	1.4458

CCCO [propan-1-ol]
[1], 101.33 kPa
Conditions	mass density [kg/m3]	viscosity [mPa·s]
293.15 K	803.56	2.208
298.15 K	799.58	1.975
303.15 K	795.59	1.738
308.15 K	791.48	1.549
313.15 K	787.36	1.382

Conditions	refractive index
[2]	1.3833

CCCO [propan-1-ol] + CCCC[NH3+].O=[N+]([O-])[O-]
[3]
Conditions	mass density [kg/m3]	viscosity [mPa·s]
293.15 K	803.56	2.208
298.15 K	799.58	1.975
303.15 K	795.59	1.738
308.15 K	791.48	1.549
313.15 K	787.36	1.382
